The results in this text go back to ChEMBL document CHEMBL1201862, “PubChem BioAssay data set” (2004).

Test [1] deals with T1, High affinity choline transporter 1 (Homo sapiens, UniProt Q9GZV3).
T1 sequence (Q9GZV3 whole entry): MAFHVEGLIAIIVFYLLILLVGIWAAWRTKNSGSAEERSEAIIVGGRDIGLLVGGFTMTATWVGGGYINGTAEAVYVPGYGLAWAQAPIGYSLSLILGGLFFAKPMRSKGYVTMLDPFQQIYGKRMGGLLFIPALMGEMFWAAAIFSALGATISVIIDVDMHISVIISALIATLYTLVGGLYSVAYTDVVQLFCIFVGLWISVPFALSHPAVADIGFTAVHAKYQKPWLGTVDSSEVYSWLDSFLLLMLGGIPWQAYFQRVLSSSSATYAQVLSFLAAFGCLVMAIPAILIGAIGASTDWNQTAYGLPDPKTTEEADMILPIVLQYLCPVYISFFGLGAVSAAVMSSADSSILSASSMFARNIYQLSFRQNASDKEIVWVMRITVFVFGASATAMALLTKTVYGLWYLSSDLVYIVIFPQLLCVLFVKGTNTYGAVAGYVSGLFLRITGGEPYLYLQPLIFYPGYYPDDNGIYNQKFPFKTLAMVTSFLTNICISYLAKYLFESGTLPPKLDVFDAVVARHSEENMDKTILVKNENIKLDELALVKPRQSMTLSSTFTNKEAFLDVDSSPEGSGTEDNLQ
Description: CHT activators, dose response, cell-based, 10-point CRC, membrane potential dye (AID 602376). The format is functional.

Test [2] can be described thus: THP-1 cell cytotoxicity, dose response, cytotoxicity control, set 3 (AID 504852). The format is functional. As to conditions: Mycobacterium tuberculosis.
A further test relates to CHO-K1. The test can be described thus: Counterscreen for antagonists of the orexin 1 receptor (OX1R; HCRTR1): Homogeneous time resolved fluorescence (HTRF)-based cell-based dose response assay to identify antagonists of the parental CHO-K1 cell line. [Related pubchem assays (depositor defined):AID434989, AID435008, AID463079, AID485270, AID492963, AID492964, AID492965, AID493232, AID504699, AID504701]. It counts as functional. To be noted: Cricetulus griseus. (Counterscreens check selectivity or assay interference.)

The nature of test [3]: Counterscreen for antagonists of the orexin 1 receptor (OX1R; HCRTR1): Fluorescence-based cell-based high throughput dose response assay to identify antagonists of the parental CHO cell line. [Related pubchem assays (depositor defined):AID434989, AID435008, AID463079, AID485270, AID492963, AID492964, AID492965, AID493232, AID504699, AID504701]. It counts as functional.
Another test has as its target T2, Caspase-3 (Homo sapiens, UniProt P42574).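 Also: Dose-response selectivity test against caspase-3 for candidate inhibitors of sentrin-specific proteases (SENPs).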
T2 sequence (P42574 whole entry): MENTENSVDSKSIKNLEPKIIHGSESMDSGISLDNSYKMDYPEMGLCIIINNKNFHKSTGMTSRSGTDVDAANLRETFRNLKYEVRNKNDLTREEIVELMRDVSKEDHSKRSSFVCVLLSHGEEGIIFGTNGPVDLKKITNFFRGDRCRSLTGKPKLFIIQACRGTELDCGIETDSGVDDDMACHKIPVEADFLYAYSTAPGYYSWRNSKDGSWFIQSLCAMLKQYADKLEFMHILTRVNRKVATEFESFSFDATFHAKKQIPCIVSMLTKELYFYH
The format is functional.

Test [4] concerns the target T3, Orexin/Hypocretin receptor type 1 (Homo sapiens, UniProt O43613). Description: Homogeneous Time Resolved Fluorescence (HTRF)-based cell-based high throughput dose response assay for antagonists of the orexin 1 receptor (OX1R; HCRTR1). [Related pubchem assays (depositor defined):AID434989, AID435008, AID463079, AID485270, AID492963, AID492964, AID492965, AID493232, AID504717, AID504718]. The format is functional. On the technique in general: TR-FRET usually uses a lanthanide donor and a delayed reading to cut background.

In test [5] the target is T4, Sentrin-specific protease 7 (Homo sapiens, UniProt Q9BQF6).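 Also: Luminescence-based dose-response confirmation of ultra-high-throughput screening hits, measuring inhibition of SENP7.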
T4 sequence (Q9BQF6 whole entry): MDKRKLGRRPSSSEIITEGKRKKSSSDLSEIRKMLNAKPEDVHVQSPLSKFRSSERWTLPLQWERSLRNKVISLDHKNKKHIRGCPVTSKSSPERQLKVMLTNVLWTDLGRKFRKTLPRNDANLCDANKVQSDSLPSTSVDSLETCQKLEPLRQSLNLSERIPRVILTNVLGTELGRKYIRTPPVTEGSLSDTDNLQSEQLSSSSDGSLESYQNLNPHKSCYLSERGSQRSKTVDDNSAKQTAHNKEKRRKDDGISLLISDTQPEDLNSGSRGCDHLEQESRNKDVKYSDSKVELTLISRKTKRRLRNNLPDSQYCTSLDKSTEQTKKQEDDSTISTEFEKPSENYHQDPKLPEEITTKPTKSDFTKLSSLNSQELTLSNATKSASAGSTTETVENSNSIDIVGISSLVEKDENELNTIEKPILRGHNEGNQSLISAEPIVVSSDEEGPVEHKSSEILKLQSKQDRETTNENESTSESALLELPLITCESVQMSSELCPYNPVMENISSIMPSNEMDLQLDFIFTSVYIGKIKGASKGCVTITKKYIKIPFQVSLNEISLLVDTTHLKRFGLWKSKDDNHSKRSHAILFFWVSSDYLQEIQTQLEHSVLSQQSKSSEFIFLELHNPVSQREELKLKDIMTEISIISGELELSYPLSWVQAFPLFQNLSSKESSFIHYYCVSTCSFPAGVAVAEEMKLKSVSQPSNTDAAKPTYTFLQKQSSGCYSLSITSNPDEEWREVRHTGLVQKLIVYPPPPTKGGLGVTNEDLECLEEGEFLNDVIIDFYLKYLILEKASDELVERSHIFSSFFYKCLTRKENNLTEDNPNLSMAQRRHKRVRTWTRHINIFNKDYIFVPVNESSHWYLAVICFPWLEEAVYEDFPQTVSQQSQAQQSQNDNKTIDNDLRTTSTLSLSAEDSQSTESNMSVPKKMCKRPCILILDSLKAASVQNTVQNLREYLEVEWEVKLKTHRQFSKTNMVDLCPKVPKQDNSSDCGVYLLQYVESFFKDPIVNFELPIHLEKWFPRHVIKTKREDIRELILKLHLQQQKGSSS
It counts as functional.

In test [6] the target is T5, Sentrin-specific protease 6 (Homo sapiens, UniProt Q9GZR1).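 Also: Luminescence-based dose-response confirmatory assay of SENP6 inhibition, following up an ultra-high-throughput screen.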
T5 sequence (Q9GZR1 whole entry): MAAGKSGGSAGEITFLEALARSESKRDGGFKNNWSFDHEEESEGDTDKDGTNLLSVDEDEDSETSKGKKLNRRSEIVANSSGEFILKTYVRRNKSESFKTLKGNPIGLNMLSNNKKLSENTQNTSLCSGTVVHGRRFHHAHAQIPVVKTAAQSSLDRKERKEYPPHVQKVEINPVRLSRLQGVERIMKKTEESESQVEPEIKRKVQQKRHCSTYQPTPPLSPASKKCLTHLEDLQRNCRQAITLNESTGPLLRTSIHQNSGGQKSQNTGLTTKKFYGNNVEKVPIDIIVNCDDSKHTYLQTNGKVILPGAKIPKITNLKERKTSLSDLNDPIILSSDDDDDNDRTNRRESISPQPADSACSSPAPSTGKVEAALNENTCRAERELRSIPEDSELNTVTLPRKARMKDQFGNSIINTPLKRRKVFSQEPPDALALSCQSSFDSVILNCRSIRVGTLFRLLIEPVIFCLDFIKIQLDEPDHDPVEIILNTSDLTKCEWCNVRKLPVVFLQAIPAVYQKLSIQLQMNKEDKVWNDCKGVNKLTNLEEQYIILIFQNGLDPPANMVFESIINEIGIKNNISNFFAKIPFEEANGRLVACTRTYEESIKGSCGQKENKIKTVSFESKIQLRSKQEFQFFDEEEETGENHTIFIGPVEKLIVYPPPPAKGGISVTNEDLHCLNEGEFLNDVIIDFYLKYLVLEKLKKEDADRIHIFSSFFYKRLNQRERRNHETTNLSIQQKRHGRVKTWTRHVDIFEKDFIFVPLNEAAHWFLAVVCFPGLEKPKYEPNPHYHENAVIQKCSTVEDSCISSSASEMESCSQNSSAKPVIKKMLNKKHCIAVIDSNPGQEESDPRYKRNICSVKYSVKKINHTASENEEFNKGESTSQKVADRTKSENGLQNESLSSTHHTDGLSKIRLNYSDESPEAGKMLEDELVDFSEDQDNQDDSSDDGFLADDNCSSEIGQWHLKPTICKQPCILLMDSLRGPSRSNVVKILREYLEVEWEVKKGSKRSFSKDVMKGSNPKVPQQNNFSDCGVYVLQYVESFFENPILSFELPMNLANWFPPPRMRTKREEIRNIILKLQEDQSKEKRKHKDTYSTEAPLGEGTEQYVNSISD
The format is functional.

In test [7] the target is T6, Sentrin-specific protease 8 (Homo sapiens, UniProt Q96LD8).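 Also: luminescence read-out of SENP8 inhibition, dose-response confirmation following an ultra-high-throughput screen.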
T6 sequence (Q96LD8 whole entry): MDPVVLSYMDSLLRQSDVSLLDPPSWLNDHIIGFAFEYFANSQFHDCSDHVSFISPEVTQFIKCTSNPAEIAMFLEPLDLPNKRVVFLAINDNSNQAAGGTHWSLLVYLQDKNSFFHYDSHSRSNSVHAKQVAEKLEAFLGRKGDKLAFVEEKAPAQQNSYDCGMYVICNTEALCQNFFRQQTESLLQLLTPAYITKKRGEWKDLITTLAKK
It counts as functional.

The target in test [8] is T3, Orexin/Hypocretin receptor type 1. The test can be described thus: Fluorescence-based cell-based high throughput dose response assay for antagonists of the orexin 1 receptor (OX1R; HCRTR1). [Related pubchem assays (depositor defined):AID434989, AID435008, AID463079, AID485270, AID492963, AID492964, AID492965, AID493232, AID504717, AID504718]. The format is functional.

Test [9] addresses T7, Orexin receptor type 2 (Homo sapiens, UniProt O43614). Description: Counterscreen assay for antagonists of the orexin 1 receptor (OX1R; HCRTR1): Fluorescence-based cell-based dose response assay for antagonists of the orexin 2 receptor (OX2R; HCRTR2), run by assay provider. The format is functional.
Test [10] deals with T7, Orexin receptor type 2. The test can be described thus: Counterscreen assay for antagonists of the orexin 1 receptor (OX1R; HCRTR1): Homogeneous Time Resolved Fluorescence (HTRF)-based cell-based dose response assay for antagonists of the orexin 2 receptor (OX2R; HCRTR2), run by assay provider. It counts as functional.
A short description of test [11]: A cell-based HTS for delayed death inhibitors of the malarial parasite plastid Measured in Microorganism System Using Plate Reader - 2126-02_Inhibitor_Dose_DryPowder_Activity. The format is functional, organism-based.
Test [12] can be described thus: A cell-based HTS for delayed death inhibitors of the malarial parasite plastid Measured in Microorganism System Using Plate Reader - 2126-01_Inhibitor_Dose_DryPowder_Activity. The format is functional, organism-based.

The source made the active and inactive calls. Some results are limits rather than exact numbers.

The term EC50 denotes the concentration giving half of the maximal effect. By CC50 is commonly meant the concentration giving 50% cytotoxicity. As usually defined, the IC50 is the point on the concentration scale where inhibition reaches its midpoint. What is called AC50 is the midpoint of the concentration-response curve, whichever way the signal moves.

T3 sequence (O43613 whole entry): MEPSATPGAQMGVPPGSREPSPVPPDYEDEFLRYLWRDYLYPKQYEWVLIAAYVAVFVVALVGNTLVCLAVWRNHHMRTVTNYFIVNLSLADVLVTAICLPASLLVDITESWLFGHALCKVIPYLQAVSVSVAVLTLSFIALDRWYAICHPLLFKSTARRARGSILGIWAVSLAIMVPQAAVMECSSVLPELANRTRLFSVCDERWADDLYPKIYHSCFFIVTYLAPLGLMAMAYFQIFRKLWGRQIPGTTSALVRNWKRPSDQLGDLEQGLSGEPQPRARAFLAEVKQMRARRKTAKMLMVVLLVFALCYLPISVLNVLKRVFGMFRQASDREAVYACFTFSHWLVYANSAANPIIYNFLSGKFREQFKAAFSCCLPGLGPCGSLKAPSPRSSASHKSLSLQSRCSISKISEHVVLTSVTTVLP
T7 sequence (O43614 whole entry): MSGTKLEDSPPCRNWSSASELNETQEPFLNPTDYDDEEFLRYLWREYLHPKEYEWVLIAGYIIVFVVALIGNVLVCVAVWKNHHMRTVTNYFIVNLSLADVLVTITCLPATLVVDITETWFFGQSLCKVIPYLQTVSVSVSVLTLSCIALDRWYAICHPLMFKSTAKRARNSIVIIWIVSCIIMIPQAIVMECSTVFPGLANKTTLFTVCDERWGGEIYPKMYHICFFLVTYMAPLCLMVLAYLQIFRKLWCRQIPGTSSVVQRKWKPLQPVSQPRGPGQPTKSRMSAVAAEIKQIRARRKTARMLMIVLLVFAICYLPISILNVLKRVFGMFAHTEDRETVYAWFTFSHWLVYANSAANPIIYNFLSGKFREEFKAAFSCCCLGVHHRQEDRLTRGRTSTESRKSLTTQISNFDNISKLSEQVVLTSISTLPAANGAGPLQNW

For the molecule `CN(CC(=O)Nc1ccc(F)c(F)c1F)C(=O)c1cc(-c2ccncc2)nc2ccccc12`, in test [1], the EC50 is 14.6 µM (active).

Consider `CCC(Sc1nc2ccccc2c(=O)[nH]1)C(=O)NC1CCCCC1` (centres undefined), for which the CC50 in [2] was > 100 µM (active).

With `COc1ccc(/C=C/c2n[nH]c(-c3ccccc3O)n2)cc1OC`, the IC50 in the test with CHO-K1 is > 66.2 µM (inactive); in test [3], > 49.8 µM (inactive); at Caspase-3, 58.8 µM (active); in test [4], 2.51 µM (active); in test [5], 4.7 µM (active); in [6] it was 13.6 µM (active). The 50% inhibitory concentration (IC50) in [7] was 12.7 µM (active); in test [8], 3.21 µM (active); at Orexin receptor type 2 [9], > 88.8 µM (inactive); at Orexin receptor type 2 [10] it was > 50 µM (inactive).

With `CC(C)NC(=O)Nc1ccc2c(c1)C(=O)N([C@@H](C)CO)C[C@@H](C)[C@H](CN(C)S(=O)(=O)c1ccc(F)cc1)OCCCC[C@H](C)O2`, the results for the half-maximal activity concentration (AC50) in [11] and in [12] were 0.765 µM (active) and 0.71 µM (active), respectively.
